The values below come from article PMC9916441, “Resveratrol Derivative Exhibits Marked Antiproliferative Actions, Affecting Stemness in Pancreatic Cancer Cells” (International Journal of Molecular Sciences, 2023).

Series [1] deals with BxPC-3. The experiment in a line: MTT cell viability assay. It counts as cell-based, human. The procedure: (§1) The cell viability was assessed using MTT assay, as previously described. Briefly, the cells were seeded in 96-well plates (4 × 10^3 cells/well) and were treated for 72 h with different concentrations of RSV, DF5, and DF12. The IC50 values were extrapolated from dose–response curves and calculated using the CompuSyn software (https://www.combosyn.com/). The selectivity index (SI) values were calculated as ratios between the IC50 values of compounds in normal HFF-1 fibroblast cells and the IC50 values of the same compounds in the PC cell lines.
Background: Tetrazolium assays rely on reduction of a dye to a coloured formazan, in cell work by metabolically active cells.

In series [2] the test system is AsPC-1. In words: MTT cell viability assay. It counts as cell-based, human. The procedure: as §1
Series [3] relates to Capan-2. In words: MTT cell viability assay. It counts as cell-based, human. The procedure: as §1
Series [4] has as its system AsPC-1, BxPC-3 and Capan-2 PC cell lines. In words: Cell growth, trypan blue exclusion test. It counts as cell-based, human. Particulars: 50 μM, counted at 24, 48 and 72 h, three PC cell lines, vs control. As to the method:
The cell counting was performed using the trypan blue exclusion test. Briefly, PC cells were seeded in 24-well plates (5 × 10^4 cells/well) and then were treated with 50 μM of DF5, RSV, or with vehicle and counted at 24, 48, and 72 h.

For series [5], the system named is normal HFF-1 fibroblast cells. The experiment in a line: MTT cell viability assay on normal fibroblasts. It counts as cell-based, human. Particulars: 72 h. The procedure:
as §1

Series [6] can be described thus: Water solubility. The series is classed as physicochemical. The procedure:
The solubility was determined as previously described. The calculated LogP (cLogP) value was determined using ACD LogP software package, version 4.55 (Advanced Chemistry Development Inc., Toronto, ON, Canada).

A short description of series [7]: Human plasma stability assay. It counts as in vitro ADME. Particulars: 80% human plasma, 37 °C. As to the method: The in vitro enzymatic stabilities of DF5 were assessed in human plasma and simulated gastric and intestinal fluids (SGF and SIF, respectively). For the human plasma stability assay, 10 μL of a 10^-4 M stock solution of DF5 in acetonitrile was added to a pre-heated (37 °C) plasma fraction and diluted with phosphate buffer (pH 7.4, 0.02 M) to obtain a final volume of 1 mL (80% plasma). The samples (50 µL) were extracted at various times and 200 µL of cold acetonitrile containing 0.5% v/v of formic acid were employed to stop the enzymatic reaction. After centrifugation for 10 min at 5000 g, the supernatant was removed and analyzed using HPLC [57].

Read-outs that look alike come from different tables or passages of the source. A value given as a limit tells only on which side of the number the result lay.

As usually defined, the IC50 is the concentration that gives 50% inhibition. A higher IC50 goes with lower potency. In general, solubility refers to the concentration that dissolves in the medium under given conditions.

Turning to `Cc1ccc(/C=C/c2ccc(O)cc2)cc1` [DF5], the IC50 is 22.7 µM in series [1] (Homo sapiens, BxPC-3, MTT, 72 h); 14.7 µM in series [2] (Homo sapiens, ASPC1, AsPC-1, MTT, 72 h); 27.8 µM in series [3] (Homo sapiens, Capan-2, MTT, 72 h); > 100 µM in series [5] (Homo sapiens, normal HFF-1 fibroblasts, 100 μM highest concentration used). The “Selectivity Index (SI) BxPC-3” value in series [1] (SI = IC50 on normal HFF-1 fibroblast cells/IC50 on BxPC-3) is reported as > 4.41. Besides, in series [2] (SI = IC50 on normal HFF-1 fibroblast cells/IC50 on AsPC-1), the “Selectivity Index (SI) AsPC-1” value is recorded as > 6.79. For the same compound, the “effect on cell viability at maximum tested concentration” value in series [3] (Capan-2, MTT, 100 µM) is on record as “almost complete loss of cell viability”. Besides, the “Selectivity Index (SI) Capan-2” value in series [3] (SI = IC50 on normal HFF-1 fibroblast cells/IC50 on Capan-2) is given as > 3.60. Besides, the “effect on cell growth (cell number)” value in series [4] is “significantly, drastically, and comparably affected cell growth”. In addition, in series [5] (up to 100 μM), the “toxicity against normal HFF-1 fibroblast cells” value is reported as “negligible toxicity”. In addition, the solubility in series [6] (read-out: Classification (water solubility)) was < 100 µg/mL; in series [6] (read-out: Water Solubility) it was < 10 µg/mL. In addition, in series [7], the “stability in human plasma” value is on record as “stable (stable: RD% < 5%)”.
